4 compounds from patent US11786839B2, “Eutectic extract formation and purification” (Givaudan France Naturals SAS, priority 2018, dated 2023) can be followed below.

The nature of assay [1]: Conjugated autoxidizable triene (CAT) assay. It is filed as biochemical. The protocol: Antioxidant solutions were prepared as follows: a methanol solution of eutectic extract or Trolox (reference) was prepared at the desired concentration. […] Various volumes of this solution (25, 50, 75, and 100 μL) were then added to 24.9 mL of phosphate buffer solution (PBS), pH 7.2, and then filled to 25.0 mL with pure methanol (75, 50, 25, and 0 μL, respectively). In this way, all buffered solutions of eutectic extract contained the same methanol volume (100 μL), which minimizes any possible bias among samples. Samples of these solutions (50 μL/well) were transferred using a multichannel micropipet into UV-Star 96-well microplate (Greiner, Frickenhausen, Germany) (absorbance at 273 nm=0.03). The microplate was then prewarmed and stirred in a thermostated shaker (PHMT Grant Instruments, […], England) at 37° C. for 5 min at 1,200 rpm. […] Each well was then filled with 100 μL of this tung oil-in-PBS emulsion. To improve repeatability, the microplate was then immediately pre-warmed and shaken, sheltered from light, in a thermostated shaker (PHMT Grant Instruments) at 37° C. for 1 min at 1,200 rpm. Fifty microliters of a freshly prepared AAPH solution in PBS (4 mM) was added with a multi-channel micropipet. […] The progress of reactions was immediately monitored by recording the decrease in absorbance at 273 nm. […] Each experiment was performed in triplicate (three wells), and results were expressed as the mean of CAT value (see below) ±SD. Similarly, to the ORAC assay, the antioxidant value of a sample was calculated through the difference between the area under the curve of this sample and that of the blank (without eutectic extract). The result of this operation gave the net area under the curve (AUC) which was then plotted on a graph as a function of the concentration. Only the linear part of the curve was taken into account to calculate the slope which was then divided by the slope of the Trolox (standard) calculated in the same conditions and analyzed on the same microplate. As such, CAT values were expressed as μmol Trolox equivalent/g eutectic extract.

Assay [2] in a line: Oxygen radical absorbance capacity (ORAC) method.
Method: Test of Physico-Chemical Efficacy as Antioxidant—Oxygen Radical Absorbance Capacity (ORAC) Method
Phosphate buffer solutions (pH 7.2) containing the desired concentrations of eutectic extracts were prepared. Fifty millilitres of each solution were transferred by multi-channel pipette into a Fluotrac 96-well microplate (Greiner).
To improve the repeatability, the microplate was pre-heated at 37° C. under orbital stirring at 1,200 rpm in a temperature-controlled thermoshaker (PHMT series, Grant Instruments Ltd, Shepreth, England) for 20 minutes.
50 μL of AAPH solution in freshly prepared phosphate buffer solution was then added using a multi-channel pipette.
A drop in fluorescence to 515 nm (λex: 490 nm) was immediately recorded. Measurements were then taken every minute for 2 hours at 37±0.1° C. with 5 seconds of stirring before each measurement using a microplate reader.
[3] abbreviates: Table 1, fresh rosemary eutectic extracts.
Where [4] appears, read: Table 2, dried rosemary powder eutectic extracts.

SMILES strings stand for the structures.

As to `CC[N+](CC)(CC)Cc1ccccc1.[Cl-]` [BTEAC alone, benzyltriethyl ammonium chloride], the CAT value in assay [1] (setting [3]) and in assay [1] (setting [4]) was 0.7 μmol TE/g each time. In addition, the ORAC value in assay [2] (setting [3]) and in assay [2] (setting [4]) was 2.8 μmol TE/g throughout.

Compound `CCCCn1cc[n+](C)c1.[Cl-]` [BmimCl alone, 1-butyl-3-methylimidazolium chloride] had a CAT value in assay [1] (setting [4]) of 0.24 μmol TE/g. This compound showed an ORAC value in assay [2] (setting [4]) of 1.1 μmol TE/g.

Turning to `C[N+](C)(C)CCO.[Cl-]` [ChCl alone, choline chloride], the CAT value in assay [1] (setting [3]) and in assay [1] (setting [4]) was 0 μmol TE/g each time. Besides, the ORAC value in assay [2] (setting [3]) and in assay [2] (setting [4]) was 0.3 μmol TE/g in each case.

`CCCCCCCC/C=C\CCCCCCCC(=O)O` [oleic acid]: the “ORAC method result in words” value in assay [2] (pure substance) was “positive value, although a modest one”.
